Measurements from patent publication US9096518B2, “Substituted hydroxamic acids and uses thereof” (Millennium Pharmaceuticals, Inc., priority 2009, dated 2015).

target: T1, purified human HDAC6 (Homo sapiens, UniProt Q9UBN7); assay: HDAC6 Enzyme Assay; format: biochemical
T1 construct: purchased BPS Bioscience 5006
T1 sequence (Q9UBN7 1-1215): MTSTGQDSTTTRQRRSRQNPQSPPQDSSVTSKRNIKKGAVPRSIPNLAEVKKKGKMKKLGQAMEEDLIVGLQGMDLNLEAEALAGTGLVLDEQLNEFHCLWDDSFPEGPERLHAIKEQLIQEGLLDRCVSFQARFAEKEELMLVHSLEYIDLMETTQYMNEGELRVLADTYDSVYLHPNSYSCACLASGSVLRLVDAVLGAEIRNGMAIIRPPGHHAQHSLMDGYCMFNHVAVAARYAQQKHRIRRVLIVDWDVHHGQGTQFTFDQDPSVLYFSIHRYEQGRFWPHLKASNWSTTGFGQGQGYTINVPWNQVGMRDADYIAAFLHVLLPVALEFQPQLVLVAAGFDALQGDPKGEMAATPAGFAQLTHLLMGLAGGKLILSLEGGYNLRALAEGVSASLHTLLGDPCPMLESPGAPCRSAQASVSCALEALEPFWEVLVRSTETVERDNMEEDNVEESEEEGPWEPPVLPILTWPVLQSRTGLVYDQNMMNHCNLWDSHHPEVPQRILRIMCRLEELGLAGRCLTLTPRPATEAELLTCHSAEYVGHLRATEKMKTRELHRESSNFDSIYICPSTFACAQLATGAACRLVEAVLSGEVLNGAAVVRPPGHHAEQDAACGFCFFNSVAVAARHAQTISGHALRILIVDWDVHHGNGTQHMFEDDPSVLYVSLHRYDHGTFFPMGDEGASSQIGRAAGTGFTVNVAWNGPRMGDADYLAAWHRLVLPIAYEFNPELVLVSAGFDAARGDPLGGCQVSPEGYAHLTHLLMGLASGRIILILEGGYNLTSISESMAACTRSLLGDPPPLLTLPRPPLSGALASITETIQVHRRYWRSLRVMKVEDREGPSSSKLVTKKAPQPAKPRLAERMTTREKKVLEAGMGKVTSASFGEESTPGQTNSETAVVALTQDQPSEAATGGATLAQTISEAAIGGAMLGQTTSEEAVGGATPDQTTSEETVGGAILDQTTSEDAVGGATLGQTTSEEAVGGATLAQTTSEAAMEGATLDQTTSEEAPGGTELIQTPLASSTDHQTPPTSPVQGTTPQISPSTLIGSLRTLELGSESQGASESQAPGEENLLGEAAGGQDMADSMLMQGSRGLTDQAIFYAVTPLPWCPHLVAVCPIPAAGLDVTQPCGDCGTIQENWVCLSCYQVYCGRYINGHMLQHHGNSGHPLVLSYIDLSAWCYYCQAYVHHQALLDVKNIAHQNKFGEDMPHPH
Procedure, shortened: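 Purified human HDAC6 incubated 1 h at 30 °C with Ac-Arg-Gly-Lys(Ac)-AMC peptide and compound; reaction stopped with trichostatin A, then trypsin releases AMC, read by fluorescence (Ex 340/Em 460 nm). IC50 from concentration-response curves relative to DMSO controls.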

IC50 [nM]	Compound
100 to 500	O=C(NO)c1ccc2c(c1)CCCN(C(=O)C13CC4CC(CC(C4)C1)C3)C2 [Compound 232, 2-(1-adamantylcarbonyl)-N-hydroxy-2,3,4,5-tetrahydro-1H-2-benzazepine-7-carboxamide]
> 500	Cn1ccc(C(=O)N2CCCc3cc(C(=O)NO)ccc3C2)n1 [Compound 233, N-hydroxy-2-[(1-methyl-1H-pyrazol-3-yl)carbonyl]-2,3,4,5-tetrahydro-1H-2-benzazepine-7-carboxamide]
100 to 500	O=C(NO)c1ccc2c(c1)CCCN(C(=O)c1cccc3ccccc13)C2 [Compound 234, N-hydroxy-2-(1-naphthoyl)-2,3,4,5-tetrahydro-1H-2-benzazepine-7-carboxamide]
100 to 500	COc1ccc(C(=O)N2CCCc3cc(C(=O)NO)ccc3C2)cc1 [Compound 235, N-hydroxy-2-(4-methoxybenzoyl)-2,3,4,5-tetrahydro-1H-2-benzazepine-7-carboxamide]
> 500	O=C(NO)c1ccc2c(c1)CCCN(C(=O)Cc1cc(C(F)(F)F)cc(C(F)(F)F)c1)C2 [Compound 236, 2-{[3,5-bis(trifluoromethyl)phenyl]acetyl}-N-hydroxy-2,3,4,5-tetrahydro-1H-2-benzazepine-7-carboxamide]
50 to 100	CC(C)(C)OC(=O)Nc1ccc(-c2cc(C(=O)N3CCc4cc(C(=O)NO)ccc4C3)no2)cc1 [Compound 237, tert-butyl[4-(3-{[6-[(hydroxyamino)carbonyl]-3,4-dihydroisoquinolin-2(1H)-yl]carbonyl}isoxazol-5-yl)phenyl]carbamate]
100 to 500	CC(C)(C)c1ccc(C(=O)N2CCCc3cc(C(=O)NO)ccc3C2)cc1 [Compound 238, 2-(4-tert-butylbenzoyl)-N-hydroxy-2,3,4,5-tetrahydro-1H-2-benzazepine-7-carboxamide]
< 50	O=C(NO)c1ccc2c(c1)CCCN(C(=O)c1cc3ccccc3s1)C2 [Compound 239, 2-(1-benzothien-2-ylcarbonyl)-N-hydroxy-2,3,4,5-tetrahydro-1H-2-benzazepine-7-carboxamide]
< 50	O=C(NO)c1ccc2c(c1)CCCN(C(=O)c1cc3cc(Cl)ccc3[nH]1)C2 [Compound 240, 2-[(5-chloro-1H-indol-2-yl)carbonyl]-N-hydroxy-2,3,4,5-tetrahydro-1H-2-benzazepine-7-carboxamide]
100 to 500	O=C(NO)c1ccc2c(c1)CCCN(C(=O)c1c(F)cc(F)cc1F)C2 [Compound 241, N-hydroxy-2-(2,4,6-trifluorobenzoyl)-2,3,4,5-tetrahydro-1H-2-benzazepine-7-carboxamide]
< 50	COc1cccc2cc(C(=O)N3CCCc4cc(C(=O)NO)ccc4C3)oc12 [Compound 242, N-hydroxy-2-[(7-methoxy-1-benzofuran-2-yl)carbonyl]-2,3,4,5-tetrahydro-1H-2-benzazepine-7-carboxamide]
100 to 500	O=C(NO)c1ccc2c(c1)CCCN(C(=O)c1cnc3ccccc3n1)C2 [Compound 243, N-hydroxy-2-(quinoxalin-2-ylcarbonyl)-2,3,4,5-tetrahydro-1H-2-benzazepine-7-carboxamide]
100 to 500	O=C(NO)c1ccc2c(c1)CCCN(C(=O)c1ccc(-c3ccccc3)cc1)C2 [Compound 244, 2-(biphenyl-4-ylcarbonyl)-N-hydroxy-2,3,4,5-tetrahydro-1H-2-benzazepine-7-carboxamide]
100 to 500	Cc1cc(C(=O)N2CCCc3cc(C(=O)NO)ccc3C2)no1 [Compound 245, N-hydroxy-2-[(5-methylisoxazol-3-yl)carbonyl]-2,3,4,5-tetrahydro-1H-2-benzazepine-7-carboxamide]
100 to 500	O=C(NO)c1ccc2c(c1)CCCN(C(=O)C1CCCCCC1)C2 [Compound 246, 2-(cycloheptylcarbonyl)-N-hydroxy-2,3,4,5-tetrahydro-1H-2-benzazepine-7-carboxamide]
100 to 500	O=C(NO)c1ccc2c(c1)CCCN(C(=O)C1CCCCC1)C2 [Compound 247, 2-(cyclohexylcarbonyl)-N-hydroxy-2,3,4,5-tetrahydro-1H-2-benzazepine-7-carboxamide]
< 50	O=C(NO)c1ccc2c(c1)CCN(C(=O)C13CC4CC(CC(O)(C4)C1)C3)C2 [Compound 248, N-hydroxy-2-[(3-hydroxy-1-adamantyl)carbonyl]-1,2,3,4-tetrahydroisoquinoline-6-carboxamide]
< 50	O=C(NO)c1ccc2c(c1)CCCN(C(=O)c1cc3ccccc3o1)C2 [Compound 250, 2-(1-benzofuran-2-ylcarbonyl)-N-hydroxy-2,3,4,5-tetrahydro-1H-2-benzazepine-7-carboxamide]
100 to 500	O=C(NO)c1ccc2c(c1)CCCN(C(=O)Cc1csc3ccc(Cl)cc13)C2 [Compound 251, 2-[(5-chloro-1-benzothien-3-yl)acetyl]-N-hydroxy-2,3,4,5-tetrahydro-1H-2-benzazepine-7-carboxamide]
100 to 500	O=C(NO)c1ccc2c(c1)CCCN(C(=O)c1ccc3occc3c1)C2 [Compound 252, 2-(1-benzofuran-5-ylcarbonyl)-N-hydroxy-2,3,4,5-tetrahydro-1H-2-benzazepine-7-carboxamide]
< 50	Cc1ccc2[nH]c(C(=O)N3CCCc4cc(C(=O)NO)ccc4C3)cc2c1 [Compound 253, N-hydroxy-2-[(5-methyl-1H-indol-2-yl)carbonyl]-2,3,4,5-tetrahydro-1H-2-benzazepine-7-carboxamide]
100 to 500	CC(=O)N/C(=C\c1ccccc1)C(=O)N1CCCc2cc(C(=O)NO)ccc2C1 [Compound 254, 2-[(2Z)-2-(acetylamino)-3-phenylprop-2-enoyl]-N-hydroxy-2,3,4,5-tetrahydro-1H-2-benzazepine-7-carboxamide]
100 to 500	O=C(NO)c1ccc2c(c1)CCCN(C(=O)c1cnc3ccccc3c1)C2 [Compound 255, N-hydroxy-2-(quinolin-3-ylcarbonyl)-2,3,4,5-tetrahydro-1H-2-benzazepine-7-carboxamide]
100 to 500	CC(=O)Nc1cc(NC(C)=O)cc(C(=O)N2CCCc3cc(C(=O)NO)ccc3C2)c1 [Compound 256, 2-[3,5-bis(acetylamino)benzoyl]-N-hydroxy-2,3,4,5-tetrahydro-1H-2-benzazepine-7-carboxamide]
50 to 100	O=C(NO)c1ccc2c(c1)CCCN(C(=O)c1cc3cc(Cl)ccc3o1)C2 [Compound 257, 2-[(5-chloro-1-benzofuran-2-yl)carbonyl]-N-hydroxy-2,3,4,5-tetrahydro-1H-2-benzazepine-7-carboxamide]
100 to 500	O=C(NO)c1ccc2c(c1)CCCN(C(=O)c1csc3ccccc13)C2 [Compound 258, 2-(1-benzothien-3-ylcarbonyl)-N-hydroxy-2,3,4,5-tetrahydro-1H-2-benzazepine-7-carboxamide]
> 500	Cc1cc(C)c(C(=O)N2CCCc3cc(C(=O)NO)ccc3C2)c(C)c1 [Compound 259]
100 to 500	O=C(NO)c1ccc2c(c1)CCCN(C(=O)c1cccs1)C2 [Compound 260, N-hydroxy-2-(2-thienylcarbonyl)-2,3,4,5-tetrahydro-1H-2-benzazepine-7-carboxamide]
> 500	O=C(NO)c1ccc2c(c1)CCCN(C(=O)c1cc(C(F)(F)F)cc(C(F)(F)F)c1)C2 [Compound 261]
